# According to patent publication US6153604A, “Therapeutic substituted guanidines” (Cambridge NeuroScience, Inc., priority 1995, dated 2000):
# Where a name gives a salt, the structure may show the parent alone.
# Tests used:
# [1] = tested on: NMDA-induced excitotoxic damage to the central nervous system; experiment: In vivo assay for protection against NMDA-induced excitotoxic damage to the central nervous system; set-up: species or system rat (Day 7 neonatal); details: Rattus norvegicus, ip, 120 h, intraperitoneal; for inhibition in vivo at 60 µmol/kg: dose 60 μmol/kg; for ED80: 15 minutes after intrastriatal NMDA, neonatal rats, read-out: ED80 (dose that provides 80% of the maximum protection)
# Procedure: In vivo assay for protection against NMDA-induced excitotoxic damage to the central nervous system.
# The in vivo potency of compounds of the present invention is exemplified by data summarized in Table II and obtained pursuant to the following protocol. Day 7 neonatal rats were anesthetized with metophane inhalation anesthetic for 4-6 minutes, inserted into a stereotaxic apparatus and injected intrastriatally with 0.5 μl of 50 mM NMDA (N-methyl-D-aspartate). 15 minutes after the NMDA injection, the rat pups were injected intraperitoneally with 10, 30 or 60 μmol/kg of the NMDA antagonist of the structure specified in Table II Animals were returned to their mother and watched for signs of distress (e.g., respiratory depression). After five days, the animals were anesthetized with CO2 and then decapitated; their brains were removed and weighed to determine the degree of neuroprotection. Because NMDA injection results in a retardation of brain growth (including necrosis), effects can be measured gravimetrically in terms of the weights of injected and non-injected hemispheres. Two groups of rat pups were used at each of three doses of a compound to generate a neuroprotection dose-response curve. The chemical structure of each of the tested compounds is specified below with the general formula of the compounds shown at the top of Table II with particular substituent groups specified within that Table. Table II discloses 1) the ED80 for each tested compound, i.e., the dose of a compound that provides 80% of the maximum protection against damage to the central nervous system; and 2) the percent (%) maximum protection against damage to the central nervous system provided by the indicated dose expressed as μmol per kilogram bodyweight of the test subject.
# [2] = target: PCP receptor; experiment: PCP receptor radioligand binding assay ([3H]MK-801, rat brain membranes); details: read-out: [3H-MK801] IC50; displacement of [3H]MK-801, rat brain membranes
# [3] = target: sigma receptor; experiment: Sigma receptor binding assay ([3H]DTG, guinea pig brain membrane homogenates); details: displacement of [3H]DTG, guinea pig brain membranes
# Procedure: Sigma Receptor Binding Assay
# Briefly, frozen whole guinea-pig brains (Biotrol, Indianapolis, Ind.) were homogenized in 10 volumes (w/v) of ice-cold 320 mM sucrose using a Brinkman polytron. The homogenate was centrifuged at 1,000×g for 20 minutes at 4° C. The supernatant was centrifuged at 20,000×g for 20 minutes at 4° C. The resulting pellet was resuspended in 10 initial volumes of 50 mM Tris/HCl buffer at pH 7.4 and centrifuged at 20,000×g for 20 minutes at 4° C. The resulting pellet was resuspended in 5 initial volumes ice-cold 50 mM Tris/HCl (pH 7.4), and the final volume was adjusted to yield a protein concentration of 3 mg/ml. Aliquots of 20-ml were stored at -70° C. until used, with no detectable loss of binding.
# The protein concentration in the 1-ml final incubation volume was 800 μg/ml, corresponding to 32 mg of brain tissue (original wet weight) and to a tissue concentration within the linear range for specific binding. […] Incubations were terminated after 90 minutes at room temperature by addition of 4 ml of ice-cold 50 mM Tris/HCl (pH 7.4) and rapid filtration of the membrane suspension through Whatman GF/B glass-fiber filters under vacuum, using a 48-well cell harvester (Brandel). The filters were washed 2 times with 4 ml of 50 mM Tris/HCl (pH 7.4). […] IC50 values were determined by non-linear regression analysis.
# [4] = read-out: % maximum protection per dose
Compound,"inhibition in vivo at 60 µmol/kg [1, 4] [%]",ED80 [1] [µmol/kg],"inhibition in vivo at 30 µmol/kg ([1]; dose 30 μmol/kg, read-out: % maximum protection per dose) [%]",IC50 [2] [nM],IC50 [3] [nM]
"CCc1cccc(N(C)C(=N)Nc2cc(Cl)ccc2Cl)c1 [Cmpd. No. 1 (Table II), N-(3-ethylphenyl)-N-methyl-N'-(2,5-dichlorophenyl)guanidine hydrochloride]",88.8,36.4,,,
"CCc1cccc(N(C)C(=N)Nc2cc(Br)ccc2Br)c1 [Cmpd. No. 2 (Table II), N-(3-ethylphenyl)-N-methyl-N'-(2,5-dibromophenyl)guanidine hydrochloride]",93.8,13.4,,,
"CCc1cccc(NC(=N)Nc2cc(C(F)(F)F)ccc2F)c1 [Cmpd. No. 3 (Table II), N-(3-Ethylphenyl)-N'-(2-fluoro-5-trifluoromethylphenyl)guanidine hydrochloride]",76.6,15.2,,,
"CCc1cccc(N(C)C(=N)Nc2cc(CC)ccc2Cl)c1 [Cmpd. No. 4 (Table II), N-(3-Ethylphenyl)-N-methyl-N'-(2-chloro-5-ethylphenyl)guanidine hydrochloride]",77.8,19.8,,,
"CCc1ccc(Cl)c(N(C)C(=N)Nc2cccc3ccccc23)c1 [Cmpd. No. 5 (Table II), N-(1-Naphthyl)-N'-(2-chloro-5-ethylphenyl)-N'-methylguanidine hydrochloride]",92.2,22.3,,,
"Cc1ccc(C)c(N(C)C(=N)Nc2cccc3ccccc23)c1 [Cmpd. No. 7 (Table II), N-(1-Naphthyl)-N'-(2,5-dimethylphenyl)-N'-methylguanidine hydrochloride]",,22.5,86,,
"N=C(Nc1cc(C(F)(F)F)ccc1F)Nc1cccc2ccccc12 [Cmpd. No. 8 (Table II), N-(1-Naphthyl)-N'-(2-fluoro-5-trifluoromethylphenyl)guanidine hydrochloride]",96,28.8,,,
"CSc1ccc(Cl)c(NC(=N)Nc2cccc3ccccc23)c1 [Cmpd. No. 9 (Table II), N-(1-Naphthyl)-N'-(2-chloro-5-thiomethylphenyl)guanidine hydrochloride]",92.7,10.8,,,
"N=C(Nc1cc(C(F)(F)F)ccc1Br)Nc1cccc2ccccc12 [Compd. No. 41 (Table I), N-(1-Naphthyl)-N'-(2-bromo-5-trifluoromethylphenyl)guanidine hydrochloride]",,,,51.1,49.6
"CSc1ccc(C(F)(F)F)cc1NC(=N)Nc1cccc2ccccc12 [Compd. No. 42 (Table I), N-(1-Naphthyl)-N'-(2-thiomethyl-5-trifluoromethylphenyl)guanidine hydrochloride]",,,,170,418
"CCc1ccc(Cl)c(NC(=N)Nc2cccc3ccccc23)c1 [Compd. No. 44 (Table I), N-(1-Naphthyl)-N'-(2-chloro-5-ethylphenyl)guanidine hydrochloride]",,,,20.6,4.94
CCc1cccc(NC(=N)Nc2cccc3ccccc23)c1 [Compd. No. 45 (Table I)],,,,39,53.8
"CSc1ccc(Cl)c(NC(=N)Nc2cccc3ccccc23)c1 [Compd. No. 46 (Table I), N-(1-Naphthyl)-N'-(2-chloro-5-thiomethylphenyl)guanidine hydrochloride]",,,,43,25.4
CSc1cccc(NC(=N)Nc2cccc3ccccc23)c1 [Compd. No. 47 (Table I)],,,,124,27
"Cc1ccc(Cl)c(NC(=N)Nc2cccc3cccnc23)c1 [Compd. No. 48 (Table I), N-(8-Quinolinyl)-N'-(2-chloro-5-methylphenyl)guanidine hydrochloride]",,,,32,989
"CN(C(=N)Nc1cccc2ccccc12)c1cc(Cl)ccc1Cl [Compd. No. 50 (Table I), N-(1-Naphthyl)-N'(2,5-dichlorophenyl)-N'-methylguanidine hydrochloride]",,,,62,1320

Compound,"inhibition in vivo at 60 µmol/kg [1, 4] [%]",ED80 [1] [µmol/kg],"inhibition in vivo at 30 µmol/kg ([1]; dose 30 μmol/kg, read-out: % maximum protection per dose) [%]",IC50 [2] [nM],IC50 [3] [nM]
CN(C(=N)Nc1cccc2ccccc12)c1cccc(Cl)c1 [Compd. No. 52 (Table I)],,,,107,2980
"Cc1ccc(C)c(N(C)C(=N)Nc2cccc3ccccc23)c1 [Compd. No. 54 (Table I), N-(1-Naphthyl)-N'-(2,5-dimethylphenyl)-N'-methylguanidine hydrochloride]",,,,79,1550
"Cc1ccc(Cl)c(N(C)C(=N)Nc2cccc3ccccc23)c1 [Compd. No. 55 (Table I), N-(1-Naphthyl)-N'-(2-chloro-5-methylphenyl)-N'-methylguanidine hydrochloride]",,,,41,2420
"CCc1ccc(Cl)c(N(C)C(=N)Nc2cccc3ccccc23)c1 [Compd. No. 57 (Table I), N-(1-Naphthyl)-N'-(2-chloro-5-ethylphenyl)-N'-methylguanidine hydrochloride]",,,,32.8,136
CCc1cccc(N(C)C(=N)Nc2cccc3ccccc23)c1 [Compd. No. 58 (Table I)],,,,37.5,2540
CCc1cccc(N(C)C(=N)Nc2cc(SC)ccc2Br)c1 [Compd. No. 59 (Table I)],,,,3.19,240
"CSc1cccc(N(C)C(=N)Nc2cc(SC)ccc2Cl)c1 [Compd. No. 60 (Table I), N-(3-Methylthiophenyl)-N-methyl-N'-(2-chloro-5-methylthiophenyl)guanidine hydrochloride]",,,,2.43,480
"CCc1ccc(Cl)c(NC(=N)N(C)c2cccc(SC)c2)c1 [Compd. No. 61 (Table I), N-(3-Methylthiophenyl)-N-methyl-N'-(2-chloro-5-ethylphenyl)guanidine hydrochloride]",,,,12.5,178
"CSc1cccc(N(C)C(=N)Nc2cc(Cl)ccc2Cl)c1 [Compd. No. 62 (Table I), N-(3-Methylthiophenyl)-N-methyl-N'-(2,5-dichlorophenyl)guanidine hydrochloride]",,,,59.3,130
"CSc1ccc(Cl)c(NC(=N)N(C)c2cccc(C(F)(F)F)c2)c1 [Compd. No. 66 (Table I), N-(3-Trifluoromethylphenyl)-N-methyl-N'-(2-chloro-5-methylthiophenyl)guanidine hydrochloride]",,,,8.47,421
"CCc1ccc(Cl)c(NC(=N)N(C)c2cccc(C(F)(F)F)c2)c1 [Compd. No. 67 (Table I), N-(3-Trifluoromethylphenyl)-N-methyl-N'-(2-chloro-5-ethylphenyl)guanidine hydrochloride]",,,,77,200
"CSc1ccc(Br)c(NC(=N)N(C)c2cccc(C(F)(F)F)c2)c1 [Compd. No. 69 (Table I), N-(3-Trifluoromethylphenyl)-N-methyl-N'-(2-bromo-5-methylthiophenyl)guanidine hydrochloride]",,,,5.55,631
"CCc1ccc(Br)c(NC(=N)N(C)c2cccc(C(F)(F)F)c2)c1 [Compd. No. 70 (Table I), N-(3-Trifluoromethylphenyl)-N-methyl-N'-(2-bromo-5-ethylphenyl)guanidine hydrochloride]",,,,20.4,166
"CN(C(=N)Nc1cc(Br)ccc1Br)c1cccc(C(F)(F)F)c1 [Compd. No. 71 (Table I), N-(3-Trifluoromethylphenyl)-N-methyl-N'-(2,5-dibromophenyl)guanidine hydrochloride]",,,,34,224
CCc1cccc(NC(=N)Nc2cc(C(F)(F)F)ccc2F)c1 [Compound 5],,,,98.9,14.8
CSc1ccc(Cl)c(NC(=N)N(C)c2cccc3cccnc23)c1 [Compound 79],,,,22.3,542
